Results: the NIST ThermoML archive (doi:10.1021/acs.jced.8b00755)
Several values for one entry are separate records, joined by “and”; a condition that tells them apart may be missing. Identical values can stand only once.

Experiments:
[1] = relative permittivity at zero frequency (dimensionless); details: 298.15 K; 101.3 kPa; Liquid; Coaxial cylinder capacitor
[2] = refractive index (Na D-line) (dimensionless); details: 298.15 K; 101.3 kPa; Liquid; Standard Abbe refractometry
[3] = 298.15 K; 101.3 kPa; Liquid; Vibrating tube method
[4] = xn = mol fraction of the nth substance listed; details: 298.15 K, 101.3 kPa, Liquid, Vibrating tube method
[5] = refractive index (Na D-line) (dimensionless); xn = mol fraction of the nth substance listed; details: 298.15 K, 101.3 kPa, Liquid, Standard Abbe refractometry
[6] = relative permittivity at zero frequency (dimensionless); xn = mol fraction of the nth substance listed; details: 298.15 K, 101.3 kPa, Liquid, Coaxial cylinder capacitor

CCCCO [butan-1-ol]
Details | mass density [kg/m3] | refractive index | relative permittivity at zero frequency
[1] | – | – | 17.49
[2] | – | 1.3971 | –
[3] | 805.92 | – | –

CCCCO [butan-1-ol] + O=C1CCCCC1
x1 = 1
Details | mass density [kg/m3] | refractive index | relative permittivity at zero frequency
[4] | 805.92 | – | –
[5] | – | 1.3971 | –
[6] | – | – | 17.49

C1CCCCC1 [cyclohexane]
Details | refractive index | relative permittivity at zero frequency
[1] | – | 2.021 and 2.02
[2] | 1.4235 | –

C1CCCCC1 [cyclohexane] + O=C1CCCC1
x2 = 0
Details | refractive index | relative permittivity at zero frequency
[5] | 1.4235 | –
[6] | – | 2.02

C1CCCCC1 [cyclohexane] + O=C1CCCCC1
x2 = 0
Details | refractive index | relative permittivity at zero frequency
[5] | 1.4235 | –
[6] | – | 2.021 and 2.02

C1CCCCC1 [cyclohexane] + OC1CCCCC1
x2 = 0
Details | refractive index | relative permittivity at zero frequency
[5] | 1.4235 | –
[6] | – | 2.021

OC1CCCCC1 [cyclohexanol]
Details | refractive index | relative permittivity at zero frequency
[1] | – | 15.71
[2] | 1.4646 | –

OC1CCCCC1 [cyclohexanol] + C1CCCCC1
Details | refractive index, [5] | relative permittivity at zero frequency, [6]
x1 = 0.02 | 1.424 | 2.084
x1 = 0.04 | 1.4245 | 2.151
x1 = 0.05 | 1.4247 | 2.184
x1 = 0.06 | 1.425 | 2.219
x1 = 0.08 | 1.4255 | 2.285
x1 = 0.1 | 1.426 | 2.354

OC1CCCCC1 [cyclohexanol] + O=C1CCCC1
x1 = 1
Details | refractive index | relative permittivity at zero frequency
[5] | 1.4646 | –
[6] | – | 15.71

OC1CCCCC1 [cyclohexanol] + O=C1CCCCC1
Details | refractive index, [5] | relative permittivity at zero frequency, [6]
x1 = 0.1 | 1.4498 | 15.16
x1 = 0.2 | 1.4512 | 14.63
x1 = 0.3 | 1.4527 | 14.24
x1 = 0.4 | 1.4542 | 13.99
x1 = 0.5 | 1.4558 | 13.91
x1 = 0.6 | 1.4574 | 13.98
x1 = 0.7 | 1.4591 | 14.2
x1 = 0.8 | 1.4608 | 14.57
x1 = 0.9 | 1.4626 | 15.08
x1 = 1 | 1.4646 | 15.71

O=C1CCCCC1 [cyclohexanone]
Details | mass density [kg/m3] | refractive index | relative permittivity at zero frequency
[1] | – | – | 15.81
[2] | – | 1.4485 | –
[3] | 942.47 | – | –

O=C1CCCCC1 [cyclohexanone] + C1CCCCC1
Details | refractive index, [5] | relative permittivity at zero frequency, [6]
x1 = 0.02 | 1.4239 | 2.189
x1 = 0.04 | 1.4243 | 2.364
x1 = 0.05 | 1.4245 | 2.467
x1 = 0.06 | 1.4247 | 2.563
x1 = 0.08 | 1.4251 | 2.746
x1 = 0.1 | 1.4255 and 1.4254 | 2.932 and 3
x1 = 0.2 | 1.4276 | 4.12
x1 = 0.3 | 1.4298 | 5.35
x1 = 0.4 | 1.4322 | 6.66
x1 = 0.5 | 1.4347 | 8.03
x1 = 0.6 | 1.4372 | 9.45
x1 = 0.7 | 1.4399 | 10.94
x1 = 0.8 | 1.4427 | 12.49
x1 = 0.9 | 1.4456 | 14.11
x1 = 1 | 1.4485 | 15.81

O=C1CCCCC1 [cyclohexanone] + CCCCCCCCCCO
Details | mass density, [4] [kg/m3] | refractive index, [5] | relative permittivity at zero frequency, [6]
x2 = 0 | 942.47 | 1.4485 | 15.81
x2 = 0.1 | 922.31 | 1.4458 | 14.59
x2 = 0.2 | 904.8 | 1.4436 | 13.46
x2 = 0.3 | 889.41 | 1.4416 | 12.41
x2 = 0.4 | 875.85 | 1.4399 | 11.44
x2 = 0.5 | 863.79 | 1.4385 | 10.57
x2 = 0.6 | 853.13 | 1.4374 | 9.81
x2 = 0.7 | 843.78 | 1.4364 | 9.15
x2 = 0.8 | 836.26 | 1.4358 | 8.59
x2 = 0.9 | 830.72 | 1.4354 | 8.12

O=C1CCCCC1 [cyclohexanone] + CCCCCCCCO
Details | mass density, [4] [kg/m3] | refractive index, [5] | relative permittivity at zero frequency, [6]
x2 = 0 | 942.47 | 1.4485 | 15.81
x2 = 0.1 | 924.71 | 1.4456 | 14.72
x2 = 0.2 | 908.6 | 1.443 | 13.74
x2 = 0.3 | 893.85 | 1.4403 | 12.87
x2 = 0.4 | 880.35 | 1.438 | 12.12
x2 = 0.5 | 867.97 | 1.4358 | 11.47
x2 = 0.6 | 856.69 | 1.4338 | 10.93
x2 = 0.7 | 846.41 | 1.4319 | 10.5
x2 = 0.8 | 837.29 | 1.4303 | 10.18
x2 = 0.9 | 829.11 | 1.4289 | 9.97

O=C1CCCCC1 [cyclohexanone] + CCCCCCO
Details | mass density, [4] [kg/m3] | refractive index, [5] | relative permittivity at zero frequency, [6]
x2 = 0 | 942.47 | 1.4485 | 15.81
x2 = 0.1 | 927.39 | 1.4444 | 14.93
x2 = 0.2 | 912.83 | 1.4405 | 14.2
x2 = 0.3 | 898.77 | 1.4367 | 13.59
x2 = 0.4 | 885.19 | 1.4332 | 13.13
x2 = 0.5 | 872.11 | 1.4299 | 12.79
x2 = 0.6 | 859.53 | 1.4267 | 12.58
x2 = 0.7 | 847.55 | 1.4237 | 12.5
x2 = 0.8 | 836.36 | 1.4209 | 12.57
x2 = 0.9 | 825.91 | 1.4184 | 12.76

O=C1CCCCC1 [cyclohexanone] + CCCCO
Details | mass density, [4] [kg/m3] | refractive index, [5] | relative permittivity at zero frequency, [6]
x2 = 0 | 942.47 | 1.4485 | 15.81
x2 = 0.1 | 932.83 | 1.4441 | 15.3
x2 = 0.2 | 922.35 | 1.4396 | 14.95
x2 = 0.3 | 910.57 | 1.4347 | 14.71
x2 = 0.4 | 897.77 | 1.4301 | 14.62
x2 = 0.5 | 883.98 | 1.4253 | 14.71
x2 = 0.6 | 869.51 | 1.4204 | 14.97
x2 = 0.7 | 854.54 | 1.4147 | 15.39
x2 = 0.8 | 838.96 | 1.4086 | 15.97
x2 = 0.9 | 822.78 | 1.4035 | 16.68

O=C1CCCCC1 [cyclohexanone] + CCO
Details | mass density, [4] [kg/m3] | refractive index, [5] | relative permittivity at zero frequency, [6]
x2 = 0 | 942.47 | 1.4485 | 15.81
x2 = 0.1 | 938.01 | 1.4449 | 15.84
x2 = 0.2 | 930.92 | 1.4401 | 15.98
x2 = 0.3 | 921.48 | 1.4339 | 16.36
x2 = 0.4 | 910.02 | 1.4268 | 16.97
x2 = 0.5 | 896.25 | 1.4187 | 17.76
x2 = 0.6 | 879.92 | 1.4094 | 18.72
x2 = 0.7 | 860.95 | 1.3988 | 19.88
x2 = 0.8 | 839.21 | 1.3869 | 21.19
x2 = 0.9 | 814.29 | 1.3739 | 22.68

O=C1CCCCC1 [cyclohexanone] + OC1CCCCC1
x2 = 0
Details | refractive index | relative permittivity at zero frequency
[5] | 1.4485 | –
[6] | – | 15.81

O=C1CCCC1 [cyclopentanone]
Details | refractive index | relative permittivity at zero frequency
[1] | – | 13.52
[2] | 1.4347 | –

O=C1CCCC1 [cyclopentanone] + C1CCCCC1
Details | refractive index, [5] | relative permittivity at zero frequency, [6]
x1 = 0.1 | 1.4236 | 2.78
x1 = 0.2 | 1.4239 | 3.61
x1 = 0.3 | 1.4244 | 4.51
x1 = 0.4 | 1.4252 | 5.51
x1 = 0.5 | 1.4262 | 6.6
x1 = 0.6 | 1.4274 | 7.78
x1 = 0.7 | 1.4289 | 9.06
x1 = 0.8 | 1.4306 | 10.45
x1 = 0.9 | 1.4325 | 11.94
x1 = 1 | 1.4347 | 13.52

O=C1CCCC1 [cyclopentanone] + OC1CCCCC1
Details | refractive index, [5] | relative permittivity at zero frequency, [6]
x2 = 0 | 1.4347 | 13.52
x2 = 0.1 | 1.4372 | 13.1
x2 = 0.2 | 1.4397 | 12.78
x2 = 0.3 | 1.4423 | 12.55
x2 = 0.4 | 1.445 | 12.42
x2 = 0.5 | 1.4479 | 12.43
x2 = 0.6 | 1.4509 | 12.61
x2 = 0.7 | 1.4541 | 12.99
x2 = 0.8 | 1.4575 | 13.59
x2 = 0.9 | 1.461 | 14.48

CCCCCCCCCCO [decan-1-ol]
Details | mass density [kg/m3] | refractive index | relative permittivity at zero frequency
[1] | – | – | 7.74
[2] | – | 1.4352 | –
[3] | 826.71 | – | –

CCCCCCCCCCO [decan-1-ol] + O=C1CCCCC1
x1 = 1
Details | mass density [kg/m3] | refractive index | relative permittivity at zero frequency
[4] | 826.71 | – | –
[5] | – | 1.4352 | –
[6] | – | – | 7.74

CCO [ethanol]
Details | mass density [kg/m3] | refractive index | relative permittivity at zero frequency
[1] | – | – | 24.37
[2] | – | 1.3594 | –
[3] | 785.26 | – | –

CCO [ethanol] + O=C1CCCCC1
x1 = 1
Details | mass density [kg/m3] | refractive index | relative permittivity at zero frequency
[4] | 785.26 | – | –
[5] | – | 1.3594 | –
[6] | – | – | 24.37

CCCCCCO [hexan-1-ol]
Details | mass density [kg/m3] | refractive index | relative permittivity at zero frequency
[1] | – | – | 13.06
[2] | – | 1.4161 | –
[3] | 815.99 | – | –

CCCCCCO [hexan-1-ol] + O=C1CCCCC1
x1 = 1
Details | mass density [kg/m3] | refractive index | relative permittivity at zero frequency
[4] | 815.99 | – | –
[5] | – | 1.4161 | –
[6] | – | – | 13.06

CCCCCCCCO [octan-1-ol]
Details | mass density [kg/m3] | refractive index | relative permittivity at zero frequency
[1] | – | – | 9.85
[2] | – | 1.4276 | –
[3] | 821.98 | – | –

CCCCCCCCO [octan-1-ol] + O=C1CCCCC1
x1 = 1
Details | mass density [kg/m3] | refractive index | relative permittivity at zero frequency
[4] | 821.98 | – | –
[5] | – | 1.4276 | –
[6] | – | – | 9.85
